Among the data in patent publication US20230159527A1, “COMPOUNDS AS BCL-2 INHIBITORS” (Fochon Pharmaceuticals, Ltd., priority 2020, published 2023) are IC50 values, retold here.

Like-named read-outs stand apart in the source and are kept apart here.

Format in all cases: cell-based
One assay has as its system Toledo cells. Briefly: Cell proliferation assay, Toledo cells (MTS, 72 h). The conditions noted are these: Toledo cells, MTS, read-out: Toledo IC50. Put shortly: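 IC50 was derived from 490 nm absorbance after a 2 h MTS step. Before that, compounds at 1.5–10000 nM final (nine points) acted on Toledo cells for 72 h at 37 °C, 5% CO2. Cells were seeded at 30000/well in 10% FBS RPMI-1640 and rested 4 h before dosing.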

For another assay, the system named is RS4;11-BCL-2 G101V cells. Briefly: Cell proliferation assay, engineered RS4;11 cells stably overexpressing BCL-2 G101V (MTS, 168 h). The conditions noted are these: read-out: RS4, 11 BCL2- G101V. Put shortly: (§1)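 Proliferation read-out: MTS for exactly 2 h, then absorbance at 490 nm, with IC50 derived from the fit. Before this, engineered RS4;11 lines (BCL-2 G101V, F104L; 5000 cells/well) were exposed 168 h at 37 °C to serially diluted compound, final 1.4–10000 nM.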

The subject of the next assay is RS4;11-BCL-2 F104L cells. Briefly: Cell proliferation assay, engineered RS4;11 cells stably overexpressing BCL-2 F104L (MTS, 168 h). The conditions noted are these: read-out: RS4, 11 BCL2-F104L. Put shortly: as §1

With `CC(C)c1ccccc1[C@@H]1CCC[C@@H]1N1CC2(CCN(c3ccc(C(=O)NS(=O)(=O)c4cnc(NC[C@H]5CC[C@](C)(O)CC5)c([N+](=O)[O-])c4)c(Oc4cnc5[nH]cc(F)c5c4)c3)CC2)C1` (single isomer, unassigned) [Example A-149, 2-((3-fluoro-1H-pyrrolo[2,3-b]pyridin-5-yl)oxy)-N-((6-((((1r,4r)-4-hydroxy-4-methylcyclohexyl)methyl)amino)-5-nitropyridin-3-yl)sulfonyl)-4-(2-((1S,2S or 1R,2R)-2-(2-isopropylphenyl)cyclo-petyl)-2,7-diazaspiro[3.5]nonan-7-yl) benzamide], the IC50 in the assay with Toledo cells (Homo sapiens) was 1 nM; with RS4;11-BCL-2 G101V cells (Homo sapiens, RS4-11, 168 h), 1 nM; with RS4;11-BCL-2 F104L cells (Homo sapiens), 1 nM.

As to `CC(C)c1ccccc1[C@@H]1CCCN1C1CC2(CCN(c3ccc(C(=O)NS(=O)(=O)c4cc5c(c([N+](=O)[O-])c4)N[C@@H]([C@H]4CC[C@](C)(O)CC4)CO5)c(Oc4cc5cc[nH]c5nc4O[C@@H]4CCN(C)C4)c3)CC2)C1` (single isomer, unassigned) [Example D-223, N-(((S)-3-((1r,4S)-4-hydroxy-4-methylcyclohexyl)-5-nitro-3,4-dihydro-2H-benzo[b][1,4]oxazin-7-yl)sulfonyl)-4-(2-((R or S)-2-(2-isopropylphenyl)pyrrolidin-1-yl)-7-azaspiro[3.5]nonan-7-yl)-2-((6-(((R)-1-methylpyrrolidin-3-yl)oxy)-1H-pyrrolo[2,3-b]pyridin-5-yl)oxy)benzamide], the IC50 in the assay with Toledo cells (Homo sapiens) is 1 nM; in the assay with RS4;11-BCL-2 G101V cells (Homo sapiens, RS4-11, 168 h) it was 1 nM; in the assay on RS4;11-BCL-2 F104L cells (Homo sapiens) it was 1 nM.

For the compound `COCCOc1nc2[nH]cc(F)c2cc1Oc1cc(N2CCC3(CC2)CC(N2CCC[C@H]2c2ccccc2C(C)C)C3)ccc1C(=O)NS(=O)(=O)c1cc2c(c([N+](=O)[O-])c1)N[C@@H]([C@H]1CC[C@](C)(O)CC1)CO2` (single isomer, unassigned) [Example D-71, 2-((3-fluoro-6-(2-methoxyethoxy)-1H-pyrrolo[2,3-b]pyridin-5-yl)oxy)-N-(((S)-3-((1r,4S)-4-hydroxy-4-methylcyclohexyl)-5-nitro-3,4-dihydro-2H-benzo[b][1,4]oxazin-7-yl)sulfonyl)-4-(2-((R or S)-2-(2-isopropylphenyl)pyrrolidin-1-yl)-7-azaspiro[3.5]nonan-7-yl)benzamide], the IC50 with Toledo cells (Homo sapiens) came to 1 nM; in the assay on RS4;11-BCL-2 G101V cells (Homo sapiens, RS4-11, 168 h) it was 13 nM; in the assay on RS4;11-BCL-2 F104L cells (Homo sapiens), 12 nM.

With `COCCOc1nc2[nH]cc(F)c2cc1Oc1cc(N2CCC3(CC2)CN([C@H]2CCC[C@H]2c2ccccc2C(C)C)C3)ccc1C(=O)NS(=O)(=O)c1cnc(NC[C@H]2CC[C@](C)(O)CC2)c([N+](=O)[O-])c1` (single isomer, unassigned) [Example A-154, 2-((3-fluoro-6-(2-methoxyethoxy)-1H-pyrrolo[2,3-b]pyridin-5-yl)oxy)-N-((6-(((1r,4r)-4-hydroxy-4-methyl-cyclohexyl)methyl)amino)-5-nitro-pyridin-3-yl)sulfonyl)-4-(2-((1S,2S or 1R,2R)-2-(2-isopropylphenyyl)cyclo-pentyl)-2,7-diazaspiro[3.5]nonan-7-yl) benzamide], the IC50 in the assay with Toledo cells (Homo sapiens) is 1 nM; in the assay on RS4;11-BCL-2 G101V cells (Homo sapiens, RS4-11, 168 h), 57 nM; in the assay with RS4;11-BCL-2 F104L cells (Homo sapiens), 19 nM.

On to `CCOc1nc2[nH]cc(F)c2cc1Oc1cc(N2CCC3(CC2)CN([C@H]2CCC[C@H]2c2ccccc2C(C)C)C3)ccc1C(=O)NS(=O)(=O)c1cc2c(c([N+](=O)[O-])c1)N[C@@H]([C@H]1CC[C@](C)(O)CC1)CO2` (single isomer, unassigned) [Example D-103, 2-((6-ethoxy-3-fluoro-1H-pyrrolo [2,3-b]pyridin-5-yl)oxy)-N-(((S)-3-((1r,4S)-4-hydroxy-4-methylcyclohexyl)-5-nitro-3,4-dihydro-2H-benzo[b][1,4]oxazin-7-yl)sulfonyl)-4-(2-((1S,2S or 1R,2R)-2-(2-isopropylphenyl)cyclopentyl)-2,7-diazaspiro[3.5]nonan-7-yl)benzamide], for which the IC50 with Toledo cells (Homo sapiens) amounted to 1 nM; in the assay with RS4;11-BCL-2 G101V cells (Homo sapiens, RS4-11, 168 h), 1 nM; with RS4;11-BCL-2 F104L cells (Homo sapiens) it was 1 nM.

For the compound `COCCOc1nc2[nH]cc(F)c2cc1Oc1cc(N2CCC3(CC2)CN([C@H]2CCC[C@H]2c2ccccc2C(C)C)C3)ccc1C(=O)NS(=O)(=O)c1cc2c(c([N+](=O)[O-])c1)N[C@@H]([C@H]1CC[C@](C)(O)CC1)CO2` (single isomer, unassigned) [Example D-95, 2-((3-fluoro-6-(2-methoxyethoxy)-1H-pyrrolo[2,3-b]pyridin-5-yl)oxy)-N-(((S)-3-((1r,4S)-4-hydroxy-4-methylcyclohexyl)-5-nitro-3,4-dihydro-2H-benzo[b][1,4]oxazin-7-yl)sulfonyl)-4-(2-((1S,2S or 1R,2R)-2-(2-isopropylphenyl)cyclopentyl)-2,7-diazaspiro[3.5]nonan-7-yl)benzamide], the IC50 in the assay on Toledo cells (Homo sapiens) came to 1 nM; in the assay on RS4;11-BCL-2 G101V cells (Homo sapiens, RS4-11, 168 h) it was 3 nM; in the assay on RS4;11-BCL-2 F104L cells (Homo sapiens) it was 8 nM.

“2-((3-fluoro-6-methoxy-1H-pyrrolo [2,3-b]pyridin-5-yl)oxy)-N-(((S)- 3-((1r,4S)-4-hydroxy-4- methylcyclohexyl)- 5-nitro-3,4-dihydro- 2H-benzo[b][1,4]oxazin-7-yl) sulfonyl)-4-(2-((1S,2S or 1R,2R)- 2-(2-isopropylphenyl) cyclopentyl)-2,7-diazaspiro[3.5] nonan-7-yl)benzamide [Example D-102]”: the results for the IC50 in the assay on Toledo cells, in the assay with RS4;11-BCL-2 G101V cells and with RS4;11-BCL-2 F104L cells were 1 nM, 16 nM and 1 nM, respectively.

`CC(C)c1ccccc1[C@@H]1CCCN1C1CC2(CCN(c3ccc(C(=O)NS(=O)(=O)c4cc5c(c([N+](=O)[O-])c4)N[C@@H]([C@H]4CC[C@](C)(O)CC4)CO5)c(Oc4cc5cc[nH]c5nc4O[C@@H]4C[C@@H](CO)N(C)C4)c3)CC2)C1` (single isomer, unassigned) [Example D-250, N-(((S)-3-((1r,4S)-4-hydroxy-4-methylcyclohexyl)-5-nitro-3,4-dihydro-2H-benzo[b][1,4]oxazin-7-yl)sulfonyl)-2-((6-(((3R,5S)-5-(hydroxymethyl)-1-methylpyrrolidin-3-yl)oxy)-1H-pyrrolo[2,3-b]pyridin-5-yl)oxy)-4-(2-((R or S)-2-(2-isopropylphenyl)pyrrolidin-1-yl)-7-azaspiro[3.5]nonan-7-yl)benzamide]: the IC50 with Toledo cells (Homo sapiens) is 1 nM; with RS4;11-BCL-2 G101V cells (Homo sapiens, RS4-11, 168 h) it was 1 nM; in the assay on RS4;11-BCL-2 F104L cells (Homo sapiens), 1 nM.

Turning to `COCCOc1nc2[nH]ccc2cc1Oc1cc(N2CCC3(CC2)CC(N2CCC[C@H]2c2ccccc2C(C)C)C3)ccc1C(=O)NS(=O)(=O)c1cc2c(c([N+](=O)[O-])c1)N[C@@H]([C@H]1CC[C@](C)(O)CC1)CO2` (single isomer, unassigned) [Example D-17, N-(((S)-3-((1r,4S)-4-hydroxy-4-methylcyclohexyl)-5-nitro-3,4-dihydro-2H-benzo[b][1,4]oxazin-7-yl)sulfonyl)-4-(2-((R or S)-2-(2-isopropylphenyl)pyrrolidin-1-yl)-7-azaspiro[3.5]nonan-7-yl)-2-((6-(2-methoxyethoxy)-1H-pyrrolo[2,3-b]pyridin-5-yl)oxy) benzamide], the IC50 with Toledo cells (Homo sapiens) turned out to be 1 nM; in the assay on RS4;11-BCL-2 G101V cells (Homo sapiens, RS4-11, 168 h) it was 1 nM; with RS4;11-BCL-2 F104L cells (Homo sapiens), 22 nM.
